# In patent US20240247048A1 (EMORY UNIVERSITY, priority 2021, published 2024):
# Columns and labels:
# [1] = tested on: KPC-Luc tumors; test: subcutaneous KPC / KPC-Luc pancreatic tumors in C57BL/6 mice; format: in vivo, mouse
# Experimental: Shown are scrambled peptide plus IgG, Ant308 plus anti-PD1, scrambled peptide plus anti-PD-1, Ant308 plus IgG, and Ant308 plus AMD3100. Tumor volume was measured with calipers. ‘Star’ (*) indicates mice euthanized either due to large tumor volume (>500 mm^3) or ulceration of the skin overlying the tumor.
# This decease in tumor volume was more pronounced in combination with anti-PD1 treatment. We also examined the effect of ANT308 in combination with Iso IgG or anti-PD1 antibody had on tumor volume as measured as a percent change in volume (FIG. 8A) and in measured volume (FIG. 8B). […] Investigating this effect more completely, we observed that combination treatment with both anti-PD1 and VIP-R antagonist was able to slow tumor growth relative to control mice treated with scrambled peptide and iso-type matched IgG, with the combination showing a statistically significant improvement in the rate of tumor growth (FIG. 8D). […]
# In vivo efficacy studies. […] In the KPC-Luc models, the tumor growth rate was plotted using the tumor flux measurements quantified using IVIS bioluminescent imaging. […] In experiments with subcutaneous tumors, Vernier calipers were used to measure the tumor dimensions and the tumor volume was calculated using the formula: tumor volume=½(length×width×height).
# [2] = tested on: phospho-CREB downstream of VPAC1/2 receptor; test: phosphorylation of CREB in activated human T cells; format: cell-based; settings: 6 h, 3 uM, compared with control scrambled peptide; FIG. 17e
# Experimental: (FIG. 17A) Representative western blot and (FIG. 17B) quantified expression levels of VPAC1 and VPAC2; and (FIG. 17C) PD-1 and CTLA-4 in lysates of healthy human T cells expanded with plate bound human anti-CD3 antibodies for 0, 3, 6, 12, 24, 48 and 72 hours. Lower molecular weight band of 25kD shown for VPAC2-specific expression as confirmed from our VPAC2 KO model. Percentage of (FIG. 17D) CD69 expression at 24 h post activation (FIG. 17E) phosphorylation of CREB (phospho-CREB) downstream of VPAC1/2 receptor at 6 h and in CD4+ and CD8+ T cells normalized to levels in control with no peptide. PDAC patient peripheral blood T cells were expanded for 9 days with plate bound human anti-CD3 antibodies+/−ANT008 and the (FIG. 17F) percentage of Tregs was quantified using the (FIG. 17G) gating strategy shown. Percentage of PD1+, Tim-3+, Lag3+, PD1+Tim-3+, PD1+Lag3+ and PD1+Tim-3+Lag-3+(triple positive) in (FIG. 17H) CD4+ and (FIG. 17I) CD8+ subsets is shown. Statistical differences in FIGS. 17D and 17E were calculated via repeated measures ANOVA followed by Dunnett's post-test where each sample in the treatment group was compared to the matched sample in the control group (scrambled treated). Statistical differences in FIGS. 17F, 17H, and 17I were calculated via paired student T-test. Error bars show mean±SEM. […], **p<0.01 and ***p<0.001. […]
sequence,measurement,setting,value
KPRRPYTSDYTRLRKQMAVKKYLNLILN [ANT308],growth of tumors compared with control mice (scrambled peptide and isotype-matched IgG),[1]; FIG. 9,not statistically different
same,tumor volume,"[1]; day 22, 3 days after a 10-day course, FIG. 7",reduced tumor volume
same,activation-induced phosphorylation of CREB,[2],more potently inhibited
